The target of assay [1] is T1, OleTJE (Jeotgalicoccus sp. ATCC 8456, UniProt E9NSU2).
T1 sequence (E9NSU2 1-422): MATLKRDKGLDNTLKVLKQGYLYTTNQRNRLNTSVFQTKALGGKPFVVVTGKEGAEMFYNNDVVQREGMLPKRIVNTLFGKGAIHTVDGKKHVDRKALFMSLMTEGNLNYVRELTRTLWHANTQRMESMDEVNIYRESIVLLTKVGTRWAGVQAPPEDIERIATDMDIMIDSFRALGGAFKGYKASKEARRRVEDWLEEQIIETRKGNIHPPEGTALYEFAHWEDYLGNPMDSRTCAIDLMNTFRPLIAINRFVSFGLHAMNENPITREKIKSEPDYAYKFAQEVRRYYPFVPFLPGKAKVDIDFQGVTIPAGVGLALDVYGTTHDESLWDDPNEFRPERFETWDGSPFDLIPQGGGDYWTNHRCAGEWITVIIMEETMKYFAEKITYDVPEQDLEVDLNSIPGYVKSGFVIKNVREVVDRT
Set-up: method as in PMID 28276499. As to conditions: C14FA decarboxylation; cited from earlier work.

The next assay deals with OleTJE L176I. In words: Fatty acid bioconversion with H2O2 as co-substrate (alkene by GC-MS, hydroxy products by HPLC-MS). It counts as biochemical, Jeotgalicoccus sp. 8456. As to conditions: 200 μM substrate, 400 μM H2O2. The procedure:
A reaction was typically quenched by adding 2-fold reaction volume of ethyl acetate which contained 30 μM of tetradecane as an internal standard. The reaction mixtures were vortexed for 1 min and then centrifuged at 12,000 rpm, 4 °C for 10 min to separate an organic and an aqueous phase. The organic phase was injected into an Agilent gas chromatography system (GC-MS) (Agilent 7890B equipped with Agilent 5977B MSD) equipped with a HP5-MS column (30 m × 0.25 mm × […]) (Agilent), and helium was used as a carrier gas. The oven conditions for C10FA and 1-nonene (C9 alkene) were ramped up from 60 to 240 °C with a rate of 19 ° C min^−1 and held at 240 °C for 1 min. […] For C18FA and 1-heptadecene (C17 alkene), the oven was ramped up from 60 to 250 °C with a rate of 22 °C min^−1 and hold at 250 °C for 4 min. For C20FA and 1-nonadecene (C19 alkene), the oven was ramped up from 100 to 250 °C with a rate of 23 °C min^−1 and held at 250 °C for 6 min. The response of target compounds was normalized with signals of the internal standard. The concentration of each compound was calculated based on a standard calibration curve.
For analyzing hydroxylated products of fatty acids, the reactions were quenched by adding an equal volume of acetonitrile, centrifuged, and filtrated. The analytes (10 μl) were injected into a liquid chromatography coupled with diode array and single quadrupole mass spectroscopy detection (LC-DAD/MS) (Agilent 1290 Infinity II LC System equipped with DAD, Single Quadrupole Mass Spectrometers system). A Zorbax eclipse plus C18 column (5 μm, 4.6 × 250 mm) (Agilent Technology) was used for separation. The mobile phase system A was water with 0.1% (v/v) formic acid, and system B was acetonitrile with 0.1% (v/v) formic acid.
All fatty acids were prepared in absolute EtOH at 20 mM as stock solutions. The reaction was carried out in 50 mM NaH2PO4 buffer with 300 mM NaCl, pH 7.5, with 2.5 or 10% (v/v) of EtOH, 200 μM of a substrate, and 400 μM of H2O2. The reactions were performed at 25 °C for 1 h, and then the alkene product was measured using GC-MS after the reactions were quenched and extracted with two-fold volume of ethyl acetate.
(§1) Site-directed mutagenesis of I178L of OleTLA and […] of OleTJE was done with overlaping PCR that used OleTLA or OleTJE plasmids as templates (Table S4). The PCR products were treated with DpnI in cut smart buffer at 37 °C for 16 h, transformed into E. coli XL−1 blue competent cells and grown at 37 °C on LB agar containing 50 μg/ml ampicillin. The plasmids of selected colonies were extracted for sequence verification. The plasmid containing the correct sequence was transformed into E. coli BL21 (DE3) for enzyme expression. The expression and purification methods of variants were the same as those of wild-type OleTLA and OleTJE.

For assay [2], the target named is T1, OleTJE. Description: Steady-state kinetics of C16FA decarboxylation with H2O2, C15 alkene by GC-MS. As to conditions: for Km / kcat: 400 μM H2O2, pH 7.5, 25 °C. It counts as biochemical, Jeotgalicoccus sp. 8456. As to the method:
(§2) Under specific times between 0.1 to 2 min, the reaction samples were taken and quenched by adding an equal volume of ethyl acetate. The ethyl acetate layer would contain the C15 alkene product, which was measured using GC-MS. Values of initial rates were plotted against substrate concentrations to analyze for Km and Vmax values using the Michaelis–Menten equation by GraphPad Prism software version 10.

A further assay has as its target OleTLA I178L (Lacicoccus alkaliphilus, UniProt A0A1M7CBV6, I178L). The assay is described as above. As to conditions: 10% (v/v) EtOH, 400 μM H2O2, pH 7.5, 25 °C. The class given is biochemical. The procedure:
as §2, §1

Assay [3] addresses T2, OleTLA (Lacicoccus alkaliphilus, UniProt A0A1M7CBV6).
T2 sequence (A0A1M7CBV6 1-424): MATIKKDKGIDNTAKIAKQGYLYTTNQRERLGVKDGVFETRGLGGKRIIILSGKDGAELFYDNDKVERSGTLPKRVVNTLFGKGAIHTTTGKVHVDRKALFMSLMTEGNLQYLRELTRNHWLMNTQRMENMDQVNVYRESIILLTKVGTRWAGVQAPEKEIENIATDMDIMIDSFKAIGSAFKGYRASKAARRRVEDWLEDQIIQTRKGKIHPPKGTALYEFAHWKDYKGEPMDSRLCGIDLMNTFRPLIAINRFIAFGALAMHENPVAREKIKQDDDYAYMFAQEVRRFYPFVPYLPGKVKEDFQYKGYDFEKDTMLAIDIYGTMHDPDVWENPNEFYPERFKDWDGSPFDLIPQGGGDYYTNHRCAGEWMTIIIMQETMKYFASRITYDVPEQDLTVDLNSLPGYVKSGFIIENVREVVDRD
Description: Equilibrium substrate binding by heme spectral change (absorbance at 390 nm). As to conditions: read-out: Kd from absorbance changes at 390 nm.

Assay [4] addresses T2, OleTLA. Description: Steady-state kinetics of C16FA decarboxylation with H2O2, C15 alkene by GC-MS. The class given is biochemical. As to conditions: for kcat / Km: 400 μM H2O2, pH 7.5, 25 °C. The procedure:
as §2

Assay [5] deals with T2, OleTLA. Description: Substrate binding by isothermal titration calorimetry (ITC). As to conditions: pH 7.5, 25 °C. The procedure: The enzyme solution was filled into a syringe while the C16FA solution was filled into the ITC cell. The reactions were constantly stirred at 750 rpm while controlling the temperature at 25 °C during titration. A total of 19 enzyme injections were added into the substrate solution. […] For the other 18 injections, 2 μl of the enzyme solution was added with […] to ensure that the conditions are under equilibrium. The data were processed and analyzed using the Microcal PEAQ-ITC analysis software to calculate the Kd value based on a single-site binding model.
On the technique in general: Isothermal titration calorimetry measures the heat released or taken up as one component is titrated into another.

Assay [6] addresses T1, OleTJE. The description is as above. Set-up: species or system Jeotgalicoccus sp. 8456. As to conditions: pH 7.5, 25 °C. The procedure:
The reactions were constantly stirred at 750 rpm while controlling the temperature at 25 °C during titration. A total of 19 enzyme injections were added into the substrate solution. […] For the other 18 injections, 2 μl of the enzyme solution was added with […] to ensure that the conditions are under equilibrium. The data were processed and analyzed using the Microcal PEAQ-ITC analysis software to calculate the Kd value based on a single-site binding model.

Consider two molecules from publication PMC12284513, “Unique structural features define the decarboxylation activity of a CYP152 fatty acid decarboxylase from Lacicoccus alkaliphilus” (The Journal of Biological Chemistry, 2025).

Values joined by “and” are separate entries in the source; they are usually repeats but may differ in a detail not shown here. Identical values can stand only once. Like-named read-outs stand apart in the source and are kept apart here.

By kcat is commonly meant the maximal rate divided by the concentration of active sites. With `CCCCCCCCCCCCCC(=O)O` [C14FA, tetradecanoic acid], the kcat at OleTJE [1] is 1.18 s⁻¹. Moreover, the “Decarboxylation activity of OleTJE L176I compared to that of OleTJE wild type” value in the assay with OleTJE L176I is “less than 1%”.
As usually defined, the Km is the concentration of substrate that gives half-maximal velocity. As usually defined, the Kd is a measure of binding affinity in units of concentration. `CCCCCCCCCCCCCCCC(=O)O` [C16FA, hexadecanoic acid]: the results for the “Enhancement of kcat in 10% (v/v) EtOH compared to 2.5% (v/v) EtOH” value on OleTJE [2] and on OleTLA [4] were about 1.4 fold and “around 4.3 fold”, respectively. Moreover, the Michaelis constant (Km) came out at 8.6 ± 1.4 µM on OleTJE [2] (2.5% (v/v) EtOH); 9.6 ± 0.6 µM at OleTJE [2] (10% (v/v) EtOH); 25 ± 0.6 µM on OleTLA I178L; 5.4 ± 0.6 µM on OleTLA [4] (2.5% (v/v) EtOH, read-out: KM); 16.7 ± 0.6 µM at OleTLA [4] (10% (v/v) EtOH). Moreover, the kcat at OleTJE [2] (2.5% (v/v) EtOH) stood at 0.647 ± 0.015 s⁻¹; on OleTJE [2] (10% (v/v) EtOH), 0.918 ± 0.0033 s⁻¹; on OleTLA I178L it was 1.6 ± 0.0417 s⁻¹; at OleTLA [4] (2.5% (v/v) EtOH) it was 0.343 ± 0.0083 s⁻¹; at OleTLA [4] (10% (v/v) EtOH) it was 1.47 ± 0.0267 s⁻¹. Moreover, the Kd on OleTLA [3] (2.5% (v/v) EtOH) turned out to be 0.32 µM; at OleTLA [3] (10% (v/v) EtOH), 0.53 µM; at OleTLA [3] (buffer (0% (v/v) EtOH)), 0.37 µM; at OleTLA [5] (2.5% (v/v) EtOH), 0.95 ± 0.14 µM; on OleTLA [5] (10% (v/v) EtOH), 1.26 ± 0.23 µM; on OleTJE [6] (2.5% (v/v) EtOH), 1.93 ± 0.16 µM. Besides, on OleTJE [6] (10% (v/v) EtOH), the affinity, expressed as Kd, was 0.44 ± 0.01 µM. The TΔS was 38.10 ± 2.65 kcal/mol on OleTLA [5] (2.5% (v/v) EtOH), 58.93 ± 2.00 kcal/mol at OleTLA [5] (10% (v/v) EtOH), 16.13 ± 2.15 kcal/mol on OleTJE [6] (2.5% (v/v) EtOH) and -5.15 ± 2.74 kcal/mol at OleTJE [6] (10% (v/v) EtOH). Moreover, the ΔG at OleTLA [5] (2.5% (v/v) EtOH) was -8.22 ± 0.08 kcal/mol; at OleTLA [5] (10% (v/v) EtOH), -8.06 ± 0.11 kcal/mol; at OleTJE [6] (2.5% (v/v) EtOH), -7.78 ± 0.05 kcal/mol; on OleTJE [6] (10% (v/v) EtOH), -8.67 ± 0.01 kcal/mol. For the same molecule, the ΔH on OleTLA [5] (2.5% (v/v) EtOH) is 29.97 kcal/mol and 29.97 ± 2.93 kcal/mol; on OleTLA [5] (10% (v/v) EtOH) it was 50.83 kcal/mol and 50.83 ± 2.10 kcal/mol; on OleTJE [6] (10% (v/v) EtOH), -12.19 ± 5.11 kcal/mol. Moreover, in the assay on OleTJE L176I, the “Decarboxylation activity of OleTJE L176I compared to that of OleTJE wild type” value is listed as “less than 5%”.
